Like-named read-outs stand apart in the source and are kept apart here.
Key:
[1] = system: Human keratinocytes (TGase I); assay: Transglutaminase (TGase I) ELISA in cultured keratinocytes, normalized to DNA (Example 3); type: cell-based; conditions: for mean TGase/DNA × 10^5 ± s.d: Control 57.80 ± 8.61; for activity at 0.25 µM: Homo sapiens, Keratinocyte, read-out: mean TGase/DNA (% control)
Experimental: Human keratinocytes, isolated from neonatal foreskin by trypsin treatment were grown in Dulbecco Modification Eagle (DME) Hams F12 (1:1) medium/10% fetal calf serum in the presence of irradiated 3T3 mouse fibroblasts for establishing dividing keratinocyte colonies. Cells were grown under the above condition until their second passage and kept frozen for future use. […] On day 7, when the cells were 80-90% confluent, they were trypsinized and plated in the serum-free medium for the various experiments.
(§1) During the process of terminal differentiation in the epidermis, a 15 nm thick layer of protein, known as the cornified envelope (CE) is formed on the inner surface of the cell periphery. The CE is composed of numerous distinct proteins which have been cross-linked together by the formation of N^ε -(γ-glutamyl) lysine isodipeptide bonds catalyzed by the action of at least two different transglutaminases (TGases) expressed in the epidermis. TGase I is expressed in abundance in the differentiated layers of the epidermis, especially the granular layer, but is absent in the undifferentiated basal epidermis. Thus TGase I is a useful marker of epidermal keratinocyte differentiation with high TGase I levels indicating a more differentiated state. An ELISA based TGase I assay, using a TGase I antibody, was used to assess the state of differentiation of the cultured keratinocytes in the examples that follow.
Keratinocytes (cultured as described above) were plated in 96 well plates at a density of 3,000 cells per well in 200 μl of cell culture media. After incubation for four days, the media was changed to media containing test compounds (six replicates per test). The cells were cultured for a further 72 hours after which time the media was aspirated and the plates stored at -70° C. After the plates were removed from the freezer, the cells were further freezed fractured by freezing and thawing and then washed 3× with PBS. The cells were incubated for one hour at room temperature (R/T) with TBS/5% BSA buffer. Cells were then incubated with 100 μl of monoclonal anti-human transglutaminase (IgG) mouse antibody (primary antibody) obtained from Biomedical Technologies Inc. diluted 1:2000 in TBS/1% BSA buffer for two hours at 37° C., and then rinsed six times with wash buffer (TBS/1% BSA/0.05% Tween-20). Cells were next incubated with 100 μl of Fab fragment, peroxidase conjugated anti-mouse IgG antibody (secondary antibody) from Amersham diluted 1:4,000 in wash buffer for two hours at 37° C. and then rinsed three times with wash buffer and three times with PBS. Cells were incubated with substrate solution (4 mg o-phenylene diamine and 3.3 μl 30% H2 O2 in 10 mL 0.1M citrate buffer, pH 5.0) for five minutes at R/T and in darkness (under aluminum foil). […] The absorbance of samples was read at 492 nm in the plate reader. […] Transglutaminase I levels were determined by subtracted background from the readings from each treatment and determining the mean s.d. for the replicates exposed to both antibodies.
The level of TGase-1 was normalized to DNA content of the cells in the same well thus eliminating variation due to differences in cell number. DNA quantitation is a particularly useful indicator of cell number, including keratinocyte cell number, because each cell has to all intents and purposes an identical genome and therefore an identical quantity of DNA. […] Quantitation of DNA was used to normalize the TGase data to cell number. […]

[2] = system: Human keratinocytes (TGase I); assay: Transglutaminase (TGase I) ELISA in cultured keratinocytes, normalized to DNA (Example 1); type: cell-based; conditions: for dose dependence of decrease in transglutaminase level: 2.5×10^-7 M to 2.5×10^-9 M; for mean TGase/DNA × 10^-4 ± s.d: 72 hours, n = 3, Control 2.44 ± 0.24
Experimental: Human keratinocytes, isolated from neonatal foreskin by trypsin treatment were grown in Dulbecco Modification Eagle (DME) Hams F12 (1:1) medium/10% fetal calf serum in the presence of irradiated 3T3 mouse fibroblasts for establishing dividing keratinocyte colonies. Cells were grown under the above condition until their second passage and kept frozen for future use. Frozen second passage keratinocytes were thawed and plated into the above medium and grown for five days before they were switched to a serum-free MCDB 153-based medium keratinocyte growth medium (KGM) from Clonetics Corporation, San Diego, Calif., containing 0.15 mM Ca, or keratinocyte serum-free media (KSFM) from GIBCO containing 0.09 mM Ca). On day 7, when the cells were 80-90% confluent, they were trypsinized and plated in the serum-free medium for the various experiments.
as §1
For Example 1, the following procedure was used:
Keratinocytes (cultured as described above) were plated in 96 well plates at a density of 3,000 cells per well in 200 μl media. After incubation for four days the media was changed to media containing test compounds (six replicates per test). The cells were cultured for a further 72 hours after which time the media was aspirated and the plates stored at -70° C. Plates were removed from the freezer, and the cells washed with PBS. 100 μl sterile water was added and the cells were freeze fractured by freezing at -70° C. then thawing. The cells were incubated for one hour at room temperature (R/T) with PBS/3% BSA (wash buffer, bovine serum albumin), then rinsed with a fresh aliquot of wash buffer. Cells were incubated with 50 μl of primary antibodies monoclonal anti-human transglutaminase mouse antibody (IgG) obtained from Biomedical Industries diluted 1:2,000 in wash buffer for one hour, 37° C. then rinsed two times with wash buffer. Cells were then incubated with 50 μl of secondary antibody (Fab fragment, peroxidase conjugated anti-mouse IgG obtaining from Amersham) diluted 1:4,000 in wash buffer for one hour at 37° C., then rinsed two times with wash buffer. Cells were incubated with substrate solution (4 mg o-phenylene diamine and 3.3 μl 30% H2 O2 in 10 ml 0.1 M citrate buffer pH 5.0) for five minutes, R/T, in darkness (under aluminum foil). The reaction was stopped by the addition of 50 μl 4N H2 SO4. The absorbance of samples was read at 492 nm in the plate reader. Out of the six replicates, four were treated with both antibodies, two were treated only with the secondary antibody (i.e., to determine background binding of enzyme conjugated Ab). TGase levels were determined by subtracting background from the readings from each treatment and determining mean±s.d. for the replicates exposed to both Ab.
The level of TGase-1 detected after treatment of the cells could be influenced by cell number, i.e., the greater the number of cells the greater the level of TGase-1 detected. The level of TGase-1 was normalized to DNA content of the cells in the same well thus eliminating variation due to differences in cell number. […]

[3] = system: ARAT; assay: In vitro Microsomal Esterification of Retinol, ARAT catalyzed; type: biochemical, bovine; conditions: 100 μM; 1 hour at 37° C.; pH 7
Experimental: (§2) Microsomes are obtained as described in: J. C. Saari and D. L. Bredberg, "CoA and Non-CoA Dependent Retinol Esterification in Retinal Figment Epithelium" J. Biol. Chem. 263, 8084-90 (1988).
(§3) A solution containing 0.1M sodium phosphate pH 7 buffer, 5 mM dithiothreitol, 2 mg/ml bovine serum albumin, 40 micromolar palmitoyl CoA, 40 micromolar dilauroyl phosphatidyl choline, 10 micromolar retinol and a test compound or a solvent blank, is incubated for 1 hour at 37° C. with a microsomal fraction isolated from bovine retinal pigment epithelial cells. After incubation, the reaction was quenched by addition of an equal volume of ethanol, and the retinyl esters formed (retinyl laurate from the LRAT catalyzed reaction and retinyl palmitate from ARAT catalyzed reaction) are extracted with hexane. The hexane layer is removed, evaporated under nitrogen, and the residue analyzed by HPLC on a 3.9×300 mm C18 reversed phase column using a 80% methanol in tetrahydrofuran mobile phase and fluorescence detection (325 nm excitation, 480 nm emission) to quantitate the retinyl ester. The quantity of ester formed in the presence of the solvent blank is taken as 100%, and this is used to calculate the percent inhibition of ester formation for the compounds tested. As a control, an aliquot of microsomes is inactivated by boiling for 5 minutes, which results in at least 95% inhibition of ester formation. […]

[4] = target: T1, LRAT (Bos taurus, UniProt Q9BGL2); assay: In vitro Microsomal Esterification of Retinol, LRAT catalyzed; type: biochemical, bovine; conditions: 1 hour at 37° C., pH 7
T1 construct: microsomal fraction isolated from bovine retinal pigment epithelial cells; from tissue; host or cells: microsomes of bovine retinal pigment epithelial cells
T1 sequence (Q9BGL2 1-230): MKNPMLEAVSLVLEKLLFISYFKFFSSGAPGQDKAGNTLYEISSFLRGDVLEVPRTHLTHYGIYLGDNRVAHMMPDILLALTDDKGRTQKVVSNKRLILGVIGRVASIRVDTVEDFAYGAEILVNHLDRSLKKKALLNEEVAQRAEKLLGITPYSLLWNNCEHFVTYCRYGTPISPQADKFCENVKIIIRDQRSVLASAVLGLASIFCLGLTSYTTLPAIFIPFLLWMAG
Experimental: as §2, §3

inhibition of keratinocyte TG1 level when used alone (in words) ([1]; 2.5×10^-7 M retinol, 10^-4 M Formula A, used alone, compared with 2.5×10^-7 M retinoic acid) | inhibition at 100 µM [4] | Structure (SMILES) | mean TGase/DNA × 10^5 ± s.d ([1]; 2.5 × 10^-7 M, 72 hours, n = 3) | activity at 0.25 µM ([1]; 72 h) | dose dependence of decrease in transglutaminase level [2] | decrease of keratinocyte differentiation compared with corresponding retinol treatments ([2]; 2.5×10^-7 M, 2.5×10^-8 M and 2.5×10^-9 M, vs retinol at same concentration) | effect on keratinocyte differentiation vs ethanol control ([2]; all concentrations tested: 2.5×10^-7 M, 2.5×10^-8 M and 2.5×10^-9 M) | activity at 0.25 µM ([1]; 2.5 × 10^-7 M, 72 hours, n = 3) | mean TGase/DNA × 10^-4 ± s.d ([2]; 2.5 × 10^-7 M) | mean TGase/DNA × 10^-4 ± s.d ([2]; 2.5 × 10^-8 M) | mean TGase/DNA × 10^-4 ± s.d ([2]; 2.5 × 10^-9 M) | % INHIBITION, ARAT [3]
 |  | CC1=C(/C=C/C(C)=C/C=C/C(C)=C/C(=O)O)C(C)(C)CCC1 [Retinoic acid] | 39.99 ± 5.28 × 10^5 | 69% | dose dependent | significantly greater extent | decreased keratinocyte differentiation |  |  |  |  | 
less effective |  | CC1=C(/C=C/C(C)=C/C=C/C(C)=C/CO)C(C)(C)CCC1 [Retinol] | 45.60 ± 3.92 × 10^5 |  | dose dependent |  |  | 79% | 1.14 ± 0.22 × 10^-4 | 1.89 ± 0.30 × 10^-4 | 2.70 ± 0.59 × 10^-4 | 
 | 0% | CCCCCCCC(=O)NC(COC)COC [Formula C] |  |  |  |  |  |  |  |  |  | 0%

— patent publication US5955092A, “Skin care compositions containing an n-substituted fatty acid amide and retinol or retinyl ester” (Elizabeth Arden Co., Division of Conopco, Inc., priority 1996, dated 1999)
